The text below walks through data of PMC6208607, “Transport of Pregabalin Via L-Type Amino Acid Transporter 1 (SLC7A5) in Human Brain Capillary Endothelial Cell Line” (Pharmaceutical Research, 2018).

The target of experiment [1] is T1, L-type amino acid transporter 1 (LAT1) (Homo sapiens, UniProt Q01650). Nature of the experiment: inhibition of pregabalin uptake in hCMEC/D3 cells at […] (LAT1 role supported by siRNA). The note with it: read-out: Uptake (% of Control). Further details: gene SLC7A5; endogenous LAT1 in hCMEC/D3 cells. It is filed as cell-based.
The target of experiment [2] is T1, L-type amino acid transporter 1 (LAT1). Nature of the experiment: LC-MS/MS uptake in LAT1-overexpressing HEK293 cells vs mock; inhibition of […]L-leucine uptake at […]. Set-up: gene SLC7A5; entire coding region for human SLC7A5, expressed in HEK293 cells; with 4F2 heavy chain (4F2hc), endogenous. It is filed as cell-based.

T1 sequence (Q01650 whole entry): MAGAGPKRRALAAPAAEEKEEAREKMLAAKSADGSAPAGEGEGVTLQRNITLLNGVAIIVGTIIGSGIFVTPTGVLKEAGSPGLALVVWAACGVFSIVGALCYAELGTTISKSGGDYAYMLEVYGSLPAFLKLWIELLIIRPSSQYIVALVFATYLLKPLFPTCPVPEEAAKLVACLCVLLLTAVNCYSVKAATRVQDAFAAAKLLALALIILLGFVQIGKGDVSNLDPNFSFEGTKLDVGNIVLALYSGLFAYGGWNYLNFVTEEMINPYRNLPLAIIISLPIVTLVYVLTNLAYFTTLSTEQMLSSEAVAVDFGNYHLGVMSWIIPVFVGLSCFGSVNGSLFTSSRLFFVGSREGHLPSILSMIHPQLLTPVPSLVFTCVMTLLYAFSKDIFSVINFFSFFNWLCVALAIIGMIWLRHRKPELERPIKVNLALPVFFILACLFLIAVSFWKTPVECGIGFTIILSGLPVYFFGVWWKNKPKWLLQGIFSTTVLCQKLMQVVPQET
T1 sequence (P08195 103-630 partner): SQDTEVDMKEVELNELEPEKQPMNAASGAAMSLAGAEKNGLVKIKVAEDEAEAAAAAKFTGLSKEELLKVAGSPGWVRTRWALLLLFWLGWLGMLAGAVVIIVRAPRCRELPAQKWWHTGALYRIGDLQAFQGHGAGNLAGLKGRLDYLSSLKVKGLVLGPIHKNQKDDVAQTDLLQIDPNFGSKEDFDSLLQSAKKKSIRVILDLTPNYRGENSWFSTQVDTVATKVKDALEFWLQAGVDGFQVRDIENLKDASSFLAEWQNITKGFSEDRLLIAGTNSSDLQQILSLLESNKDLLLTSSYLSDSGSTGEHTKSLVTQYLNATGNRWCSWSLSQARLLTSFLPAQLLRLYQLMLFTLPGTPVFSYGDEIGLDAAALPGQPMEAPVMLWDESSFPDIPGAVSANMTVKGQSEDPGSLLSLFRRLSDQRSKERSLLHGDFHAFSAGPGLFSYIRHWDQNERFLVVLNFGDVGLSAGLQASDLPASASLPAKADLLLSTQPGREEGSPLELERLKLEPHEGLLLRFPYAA

As for `Nc1cc(COc2c(Cl)cc(C[C@H](N)C(=O)O)cc2Cl)c2oc(-c3ccccc3)nc2c1` [JPH203], the remaining activity at 10 µM in experiment [1] was under 6.53%.

In the case of `CC(C)C[C@H](CN)CC(=O)O` [pregabalin], the Km in experiment [2] worked out at 288 µM.

As usually defined, the Km is the substrate concentration at which the rate is half of its maximum.
